{"source": "EPA's ToxRefDB 2", "key": {"rat [1]": {"test_system": "rat", "conditions": "Combined chronic toxicity/carcinogenicity, fischer, Oral, Gavage/Intubation, dose end: 103 week, group: systemic"}, "mouse [2]": {"test_system": "mouse", "conditions": "Combined chronic toxicity/carcinogenicity, b6c3f1, Oral, Gavage/Intubation, dose end: 103 week, group: systemic"}, "mouse [3]": {"test_system": "mouse", "conditions": "Subchronic oral toxicity in rodents, b6c3f1, Gavage/Intubation, dose end: 13 week, group: systemic, systemic / in life observation / clinical signs / fur (altered appearance) + systemic / in life observation / clinical signs / reduced …"}, "rat [4]": {"test_system": "rat", "conditions": "Subchronic oral toxicity in rodents, fischer, Gavage/Intubation, dose end: 13 week, group: systemic"}, "rat [5]": {"test_system": "rat", "conditions": "Other (NonGuideline or Guideline Not Listed), sprague dawley, Oral, Gavage/Intubation, dose end: 7 day, group: cannot be grouped"}, "rat [6]": {"test_system": "rat", "conditions": "Sub-acute repeat dose toxicity; sprague dawley; Oral; Gavage/Intubation; dose end: 6 day; group: systemic; systemic / clinical chemistry / alanine aminotransferase (alt/sgpt) / alanine aminotransferase (alt/sgpt) + systemic / clinical chemistry / …"}, "rat [7]": {"test_system": "rat", "conditions": "Sub-acute repeat dose toxicity; sprague dawley; Oral; Gavage/Intubation; dose end: 16 day; group: systemic; systemic / organ weight / liver / absolute + systemic / organ weight / liver / relative to body weight + systemic / organ weight / liver / …"}, "rat [8]": {"test_system": "rat", "conditions": "Other (NonGuideline or Guideline Not Listed); sprague dawley; Oral; Gavage/Intubation; dose end: 5 day; group: cannot be grouped; systemic / clinical chemistry / alanine aminotransferase (alt/sgpt) / alanine aminotransferase (alt/sgpt) + systemic / clinical chemistry / …"}, "primate": {"test_system": "primate", "conditions": "Other (NonGuideline or Guideline Not Listed); rhesus; Oral; Gavage/Intubation; dose end: 8 day; group: cannot be grouped; systemic / clinical chemistry / alanine aminotransferase (alt/sgpt) / alanine aminotransferase (alt/sgpt) + systemic / clinical chemistry / …"}, "rat [9]": {"test_system": "rat", "conditions": "Carcinogenicity; fischer; Oral; Feed; dose end: 107 week; group: systemic; systemic / in life observation / body weight / body weight"}, "mouse [10]": {"test_system": "mouse", "conditions": "Subchronic oral toxicity in rodents, b6c3f1, Feed, dose end: 7 week, group: systemic, systemic / in life observation / body weight / body weight"}, "mouse [11]": {"test_system": "mouse", "conditions": "Carcinogenicity; b6c3f1; Oral; Feed; dose end: 108 week; group: systemic; systemic / in life observation / body weight / body weight"}, "rat [12]": {"test_system": "rat", "conditions": "Subchronic oral toxicity in rodents, fischer, Feed, dose end: 7 week, group: systemic, systemic / in life observation / body weight / body weight"}, "rat [13]": {"test_system": "rat", "conditions": "Combined chronic toxicity/carcinogenicity; fischer; Oral; Gavage/Intubation; dose end: 2 year; group: systemic; systemic / in life observation / body weight / body weight"}, "mouse [14]": {"test_system": "mouse", "conditions": "Subchronic oral toxicity in rodents, b6c3f1, Gavage/Intubation, dose end: 13 week, group: systemic"}, "mouse [15]": {"test_system": "mouse", "conditions": "Combined chronic toxicity/carcinogenicity, b6c3f1, Oral, Gavage/Intubation, dose end: 2 year, group: systemic"}, "rat [16]": {"test_system": "rat", "conditions": "Subchronic oral toxicity in rodents, fischer, Gavage/Intubation, dose end: 13 week, group: systemic", "remark": "listed apart in the source"}, "[17]": {"conditions": "systemic / pathology microscopic / kidney / hyperplasia + systemic / pathology microscopic / kidney / mineralization"}, "[18]": {"conditions": "systemic / pathology microscopic / kidney / hyperplasia + systemic / pathology microscopic / kidney / mineralization + systemic / pathology …"}, "[19]": {"conditions": "systemic / in life observation / body weight / body weight"}, "[20]": {"conditions": "systemic / pathology microscopic / liver / cytomegaly + systemic / pathology microscopic / liver / multinucleated"}, "[21]": {"conditions": "systemic / in life observation / body weight / body weight + systemic / in life observation / clinical signs / fur (altered appearance) + …"}, "[22]": {"conditions": "systemic / pathology microscopic / kidney / casts + systemic / pathology microscopic / kidney / regeneration"}, "[23]": {"conditions": "systemic / clinical chemistry / alkaline phosphatase (alp/alk) / alkaline phosphatase (alp/alk) + systemic / clinical chemistry / glucose / …"}, "[24]": {"conditions": "systemic / clinical chemistry / glucose / glucose + systemic / pathology gross / liver / discolored + systemic / pathology microscopic / …"}, "[25]": {"conditions": "systemic / pathology microscopic / kidney / nephropathy"}, "[26]": {"conditions": "systemic / in life observation / body weight / body weight + systemic / pathology microscopic / kidney / nephropathy"}, "[27]": {"conditions": "systemic / in life observation / body weight / body weight + systemic / pathology microscopic / kidney / nephropathy + systemic / pathology …"}, "[28]": {"conditions": "systemic / in life observation / body weight / body weight + systemic / in life observation / clinical signs / alopecia + systemic / in life…"}}}
{"smiles": "C=C(C)[C@H]1CC=C(C)CC1", "note": "[D-Limonene]", "values": [{"measurement": "LOAEL", "setting": "rat [1]; [17]", "value": 75, "unit": "mg/kg/day"}, {"measurement": "NOAEL", "setting": "rat [1]; [17]", "value": "< 75", "unit": "mg/kg/day"}, {"measurement": "LEL", "setting": "rat [1]; [18]", "value": 75, "unit": "mg/kg/day"}, {"measurement": "NEL", "setting": "rat [1]; [18]", "value": "< 75", "unit": "mg/kg/day"}, {"measurement": "LOAEL", "setting": "mouse [2]; [19]", "value": 1000, "unit": "mg/kg/day"}, {"measurement": "NOAEL", "setting": "mouse [2]; [19]", "value": 500, "unit": "mg/kg/day"}, {"measurement": "LEL", "setting": "mouse [2]; [20]", "value": 500, "unit": "mg/kg/day"}, {"measurement": "NEL", "setting": "mouse [2]; [20]", "value": 250, "unit": "mg/kg/day"}, {"measurement": "LEL", "setting": "mouse [3]", "value": 1000, "unit": "mg/kg/day"}, {"measurement": "LOAEL", "setting": "mouse [3]", "value": "> 2000", "unit": "mg/kg/day"}, {"measurement": "NEL", "setting": "mouse [3]", "value": 500, "unit": "mg/kg/day"}, {"measurement": "NOAEL", "setting": "mouse [3]", "value": "≥ 2000", "unit": "mg/kg/day"}, {"measurement": "LOAEL", "setting": "rat [4]; [21]", "value": "> 2400", "unit": "mg/kg/day"}, {"measurement": "NOAEL", "setting": "rat [4]; [21]", "value": "≥ 2400", "unit": "mg/kg/day"}, {"measurement": "LEL", "setting": "rat [4]; [22]", "value": 150, "unit": "mg/kg/day"}, {"measurement": "NEL", "setting": "rat [4]; [22]", "value": "< 150", "unit": "mg/kg/day"}]}
{"smiles": "CCn1nc(Cc2ccccc2)cc1C1CCN(C[C@H]2C[C@H](N(C)[C@@H](C(=O)O)C(C)C)C[C@@H]2c2cccc(F)c2)CC1", "note": "[MK-578]", "values": [{"measurement": "LOAEL", "setting": "rat [5]; [23]", "value": "> 250", "unit": "mg/kg/day"}, {"measurement": "NOAEL", "setting": "rat [5]; [23]", "value": "≥ 250", "unit": "mg/kg/day"}, {"measurement": "LEL", "setting": "rat [5]; [24]", "value": 100, "unit": "mg/kg/day"}, {"measurement": "NEL", "setting": "rat [5]; [24]", "value": "< 100", "unit": "mg/kg/day"}, {"measurement": "LEL", "setting": "rat [6]", "value": 500, "unit": "mg/kg/day"}, {"measurement": "LOAEL", "setting": "rat [6]", "value": "> 500", "unit": "mg/kg/day"}, {"measurement": "NEL", "setting": "rat [6]", "value": "< 500", "unit": "mg/kg/day"}, {"measurement": "NOAEL", "setting": "rat [6]", "value": "≥ 500", "unit": "mg/kg/day"}, {"measurement": "LEL", "setting": "rat [7]", "value": 100, "unit": "mg/kg/day"}, {"measurement": "LOAEL", "setting": "rat [7]", "value": "> 100", "unit": "mg/kg/day"}, {"measurement": "NEL", "setting": "rat [7]", "value": 30, "unit": "mg/kg/day"}, {"measurement": "NOAEL", "setting": "rat [7]", "value": "≥ 100", "unit": "mg/kg/day"}, {"measurement": "LEL", "setting": "rat [8]", "value": 250, "unit": "mg/kg/day"}, {"measurement": "LOAEL", "setting": "rat [8]", "value": "> 500", "unit": "mg/kg/day"}, {"measurement": "NEL", "setting": "rat [8]", "value": "< 250", "unit": "mg/kg/day"}, {"measurement": "NOAEL", "setting": "rat [8]", "value": "≥ 500", "unit": "mg/kg/day"}, {"measurement": "LEL", "setting": "primate", "value": 200, "unit": "mg/kg/day"}, {"measurement": "LOAEL", "setting": "primate", "value": "> 200", "unit": "mg/kg/day"}, {"measurement": "NEL", "setting": "primate", "value": "< 200", "unit": "mg/kg/day"}, {"measurement": "NOAEL", "setting": "primate", "value": "≥ 200", "unit": "mg/kg/day"}]}
{"smiles": "CCN(CC)C(=S)SSC(=S)N(CC)CC", "note": "[Disulfiram]", "values": [{"measurement": "LEL", "setting": "rat [9]", "value": 15, "unit": "mg/kg/day"}, {"measurement": "LOAEL", "setting": "rat [9]", "value": "> 30", "unit": "mg/kg/day"}, {"measurement": "NEL", "setting": "rat [9]", "value": "< 15", "unit": "mg/kg/day"}, {"measurement": "NOAEL", "setting": "rat [9]", "value": "≥ 30", "unit": "mg/kg/day"}, {"measurement": "LEL", "setting": "mouse [10]", "value": 150, "unit": "mg/kg/day"}, {"measurement": "LOAEL", "setting": "mouse [10]", "value": 150, "unit": "mg/kg/day"}, {"measurement": "NEL", "setting": "mouse [10]", "value": 75, "unit": "mg/kg/day"}, {"measurement": "NOAEL", "setting": "mouse [10]", "value": 75, "unit": "mg/kg/day"}, {"measurement": "LEL", "setting": "mouse [11]", "value": 15, "unit": "mg/kg/day"}, {"measurement": "LOAEL", "setting": "mouse [11]", "value": 15, "unit": "mg/kg/day"}, {"measurement": "NEL", "setting": "mouse [11]", "value": "< 15", "unit": "mg/kg/day"}, {"measurement": "NOAEL", "setting": "mouse [11]", "value": "< 15", "unit": "mg/kg/day"}, {"measurement": "LEL", "setting": "rat [12]", "value": 75, "unit": "mg/kg/day"}, {"measurement": "LOAEL", "setting": "rat [12]", "value": 75, "unit": "mg/kg/day"}, {"measurement": "NEL", "setting": "rat [12]", "value": "< 75", "unit": "mg/kg/day"}, {"measurement": "NOAEL", "setting": "rat [12]", "value": "< 75", "unit": "mg/kg/day"}]}
{"smiles": "CCCCCCc1ccc(O)cc1O", "note": "[4-Hexylresorcinol]", "values": [{"measurement": "LEL", "setting": "rat [13]", "value": 125, "unit": "mg/kg/day"}, {"measurement": "LOAEL", "setting": "rat [13]", "value": 125, "unit": "mg/kg/day"}, {"measurement": "NEL", "setting": "rat [13]", "value": 62.5, "unit": "mg/kg/day"}, {"measurement": "NOAEL", "setting": "rat [13]", "value": 62.5, "unit": "mg/kg/day"}, {"measurement": "LEL", "setting": "mouse [14]; [25]", "value": 125, "unit": "mg/kg/day"}, {"measurement": "LOAEL", "setting": "mouse [14]; [25]", "value": 250, "unit": "mg/kg/day"}, {"measurement": "NEL", "setting": "mouse [14]; systemic / pathology microscopic / kidney / nephropathy + systemic / in life observation / body weight / body weight + systemic / in life …", "value": 62.5, "unit": "mg/kg/day"}, {"measurement": "NOAEL", "setting": "mouse [14]; systemic / pathology microscopic / kidney / nephropathy + systemic / in life observation / mortality / mortality", "value": 125, "unit": "mg/kg/day"}, {"measurement": "LOAEL", "setting": "mouse [15]; [26]", "value": 62.5, "unit": "mg/kg/day"}, {"measurement": "NOAEL", "setting": "mouse [15]; [26]", "value": "< 62.5", "unit": "mg/kg/day"}, {"measurement": "LEL", "setting": "mouse [15]; [27]", "value": 62.5, "unit": "mg/kg/day"}, {"measurement": "NEL", "setting": "mouse [15]; [27]", "value": "< 62.5", "unit": "mg/kg/day"}, {"measurement": "LEL", "setting": "rat [16]; [19]", "value": 125, "unit": "mg/kg/day"}, {"measurement": "LOAEL", "setting": "rat [16]; [19]", "value": 125, "unit": "mg/kg/day"}, {"measurement": "NEL", "setting": "rat [16]; [28]", "value": 62.5, "unit": "mg/kg/day"}, {"measurement": "NOAEL", "setting": "rat [16]; [28]", "value": 62.5, "unit": "mg/kg/day"}]}
